Test results published in PubChem BioAssay (NCI).
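GI50 = concentration required for 50% inhibition of growth. TGI: total growth inhibition.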

Experiments:
Assay in all cases: growth of human tumour cells (NCI), 384-well format
HCT-15 colon = test system: HCT-15 colon
LOX IMVI melanoma = test system: LOX IMVI melanoma
A549 NSCLC = test system: A549 NSCLC
OVCAR-5 ovarian = test system: OVCAR-5 ovarian
786-0 renal = test system: 786-0 renal
HOP-62 NSCLC = test system: HOP-62 NSCLC
NCI-H226 lung = test system: NCI-H226 lung
SW-620 colon = test system: SW-620 colon
T-47D breast = test system: T-47D breast
HS 578T breast = test system: HS 578T breast
SF-268 CNS = test system: SF-268 CNS
MCF7 breast = test system: MCF7 breast
NCI/ADR-RES ovarian = test system: NCI/ADR-RES ovarian

Structure (SMILES)	GI50 (HCT-15 colon)	TGI (HCT-15 colon)	GI50 (LOX IMVI melanoma)	TGI (LOX IMVI melanoma)	GI50 (A549 NSCLC)	TGI (A549 NSCLC)	GI50 (OVCAR-5 ovarian)	TGI (OVCAR-5 ovarian)	GI50 (786-0 renal)	TGI (786-0 renal)	GI50 (HOP-62 NSCLC)	TGI (HOP-62 NSCLC)	GI50 (NCI-H226 lung)	TGI (NCI-H226 lung)	GI50 (SW-620 colon)	TGI (SW-620 colon)	GI50 (T-47D breast)	TGI (T-47D breast)	GI50 (HS 578T breast)	TGI (HS 578T breast)	also measured
Cc1cc(-c2nc(C(=O)Nc3cc4oc(N5CCOCC5)nc4nc3N3CC[C@@H](O)C3)co2)ccn1	20.2 µM	> 100000 nM	39.3 µM	> 100000 nM	32.3 µM	> 100 µM	46 µM	> 100 µM	43.4 µM	> 100000 nM	15.3 µM	> 100000 nM	81.2 µM	> 100 µM	28.5 µM	> 100000 nM	11.8 µM	88 µM	2370 nM	23.4 µM	GI50 (SF-268 CNS): 54.2 µM; TGI (SF-268 CNS): > 100 µM; GI50 (MCF7 breast): 16.5 µM; TGI (MCF7 breast): > 100000 nM; GI50 (NCI/ADR-RES ovarian): > 100000 nM; TGI (NCI/ADR-RES ovarian): > 100 µM
C[C@@H](Oc1cc(-n2cnc3ccc(CN4CCN(C)CC4)cc32)sc1C(N)=O)c1ccccc1C(F)(F)F	0.374 µM	1200 nM	0.588 µM	1950 nM	0.819 µM	6.85 µM	0.532 µM	3.76 µM	1.17 µM	2730 nM	0.465 µM	2340 nM	3.55 µM	17.8 µM	0.34 µM	1510 nM	1.83 µM	5.23 µM	1010 nM	2.58 µM	GI50 (SF-268 CNS): 0.882 µM; TGI (SF-268 CNS): 3.64 µM; GI50 (MCF7 breast): 0.384 µM; TGI (MCF7 breast): 2500 nM; GI50 (NCI/ADR-RES ovarian): 1690 nM; TGI (NCI/ADR-RES ovarian): 3.59 µM
